Laboratory results: patent US20190017067A1, “[…] PLANTS HAVING MODIFIED 5-ENOLPYRUVYLSHIKIMATE-3-PHOSPHATE SYNTHASE GENE REGULATION” (Regents of the University of Minnesota, priority 2016, published 2019)
“Also recorded” adds a separate entry of the source.

Assays:
Type in all cases: in vivo, cassava (Manihot esculenta)
[1] = tested on: cassava plants transgenic for H063 (RB1 promoter driving the TIPA EPSPS sequence); test: Greenhouse glyphosate challenge, visual damage score; conditions: two independent lines, assay as for FIG. 6 (50 mg active ingredient per plant; 1=no damage, 7=plant death)
Protocol: (§1) Plants transgenic for 2×35S and native EPSPS promoter expression cassettes were established in the greenhouse following procedures described elsewhere (Taylor et al., 2012 Tropical Plant Biology, 5: 127-139; and Chauhan et al., 2015 Plant Cell Tissue and Organ Culture 121: 591-603). Glyphosate 5.4 was prepared in a solution containing Surface surfactant and applied to leaves of 4-5 week old plants. Glyphosate was applied at a rate of 50 mg active ingredient per plant in a dropwise manner to the youngest 1-2 fully expanded leaves. Plants were grown on the greenhouse bench under conditions described elsewhere (Taylor et al., 2012 Tropical Plant Biology, 5: 127-139; and Chauhan et al., 2015 Plant Cell Tissue and Organ Culture 121: 591-603). Three times per week plants were scored visually on a 1-7 scale for damaged caused by the glyphosate application, where 1=no damage and 7=death.
(§2) To test the suitability of the two best promoter candidates for driving EPSPS expression, the RB1 and DFP promoters were used to drive expression of TIPA gene models (as shown in FIG. 12) transformed into cassava as described for the other gene models in Example 2. Independent lines were challenged with glyphosate as described for the other gene models in Example 6.

[2] = tested on: cassava plants transgenic for H064 (DFP promoter driving the TIPA EPSPS sequence); test: as above; conditions: four independent lines, assay as for FIG. 6 (50 mg active ingredient per plant; 1=no damage, 7=plant death)
Protocol: as §1, §2

[3] = tested on: shoots of transgenic events expressing high levels of the T102I/P106A (TIPA) enzyme; test: In vitro rooting test on glyphosate-containing media; conditions: media containing 0.05 mM glyphosate; compared to events expressing the gene variant at lower levels; p=0.00
Excerpt: Gene models are shown in FIG. 2, and indicated as follows: H001, WT EPSPS driven by the TME7 EPSPS promoter; H002, T102I/P106A EPSPS driven by the TME7 EPSPS promoter; H003, WT EPSPS driven by the 2×35s promoter; H004, T102I/P106A EPSPS driven by the 2×35s promoter.
(§3) Plantlets were regenerated from five independent transformation events with each gene model vector. Apical stem cuttings approximately 1.5 cm in length were excised from in vitro shoot cultures of transgenic plant lines and cultured on Murashige and Skoog basal media supplemented with 0.05 mM glyphosate. A total of five Petri dishes were established per transgenic event with three plantlets cultured in each dish.
(§4) Plants were monitored for a period of three weeks. The number of roots formed, length of roots, shoot vigor, and overall plant health were recorded at weekly intervals.

[4] = tested on: non-transgenic cassava stem cuttings; test: as above; conditions: glyphosate added to the medium at 0.05 mM
Protocol: Experiments were conducted to access the effects of glyphosate on in vitro rooting by culturing non transgenic shoots on media containing different concentrations of glyphosate ranging from 0.001 mM to 1.0 mM.
as §3, §4

[5] = tested on: WT non-transgenic cassava plant (susceptible control); test: Greenhouse glyphosate challenge, phenotype; conditions: 50 mg active ingredient per plant, 21 days after application (FIG. 7)
Protocol: as §1

[6] = tested on: cassava plants edited with the H056 vector (double 35s promoter driving the TIPA enzyme); test: Greenhouse glyphosate challenge of gene-edited plants; conditions: H056 edited event; 50 mg active ingredient per plant; assay as for FIG. 6; compared with H004 event
Protocol: as §1
Vectors containing gene editing reagents described in Example 8 were introduced into cassava callus via Agrobacterium transformation (for example, SEQ ID NOs: 11-14). The vectors were designed to repair the EPSPS promoter excision event either by HR or NHEJ from a standard T-DNA (H055; SEQ ID NO: 11), by HR only from a standard T-DNA (H056; SEQ ID NO: 12), or by HR only from a geminivirus replicon (H060; SEQ ID NO: 14). […]

[7] = tested on: cassava plants transgenic for H013 (EPSPS promoter driving the TIPI (T102I/P106I) EPSPS sequence); test: Greenhouse glyphosate challenge, visual damage score; conditions: 50 mg active ingredient per plant applied dropwise to leaves of 4-5 week old plants, scored three times weekly, 1=no damage, 7=plant death
Protocol: as §1

[8] = tested on: cassava plants transgenic for H014 (double 35S promoter driving the TIPI EPSPS sequence); test: as above; conditions: 50 mg active ingredient per plant applied dropwise to leaves of 4-5 week old plants, scored three times weekly, 1=no damage, 7=plant death
Protocol: as §1

[9] = tested on: cassava plants transgenic for H010 (double 35S promoter driving the GAAT EPSPS sequence); test: as above; conditions: 50 mg active ingredient per plant applied dropwise to leaves of 4-5 week old plants, scored three times weekly, 1=no damage, 7=plant death
Protocol: as §1

[10] = tested on: cassava plants transgenic for H009 (EPSPS promoter driving the GAAT (G101A/A192T) EPSPS sequence); test: as above; conditions: 50 mg active ingredient per plant applied dropwise to leaves of 4-5 week old plants, scored three times weekly, 1=no damage, 7=plant death
Protocol: as §1

`O=C(O)CNCP(=O)(O)O` [glyphosate] was tested, and the “average damage to the shoots, scale of 1-7” value (from here on “average damage to the shoots”) [1] was 3-4, the “average damage to the shoots” value [2] was “around 4” and the “number and length of roots formed” value [3] was “more and longer roots”. For the same compound, the “effect on in vitro rooting and shoots” value [4] was “Inhibited root formation and shoot death”, the “phenotype after herbicide challenge” value [5] was “complete killing” and the “glyphosate tolerance of edited plants (damage over time)” value [6] was “equivalent to the best H004 event recovered; also recorded: equivalent to performance of the best H004”. The “average damage to the shoots” value [7] was 4-5.5, the “average damage to the shoots” value [8] was 1-3.5 and the “average damage to the shoots” value [9] was 3-4. The “average damage to the shoots” value [10] was 4-6.5.
